Test results as given in patent publication US9976183B2, “Biomarkers for cancers responsive to modulators of HEC1 activity” (TAIVEX THERAPEUTICS CORPORATION, priority 2011, dated 2018).
“And” between values parts separate entries of the source, which are not always exact repeats. Identical values can stand only once. Values belong to the molecule of their own block, whether it stands above or below them.

How the values were obtained:
Type in all cases: cell-based
K562 [1] = test: Drug sensitivity, MTS cell viability assay (GI50)
Experimental: (§1) Drug sensitivity: Cell lines were screened for drug sensitivity by treatment with specified drugs 24 hours after seeding in appropriate seeding numbers into 96 well plates containing low glucose DME with 10% FBS. The drug was added to the plate in triplicate wells, and the cells are incubated in drug treated medium for 96 hours before cell viability was determined by MTS assay using CellTiter 96® Aqueous non-radioactive cell proliferation assay system (Promega, Madison, Wis. 53711 USA). The MTS assay was performed according to the manufacturer's instructions. Optical density was measured using a Bio-Tek 340 spectrophotometer (Bio-Tek, Winooski, Vt. 05404) and optical readings were then processed in Excel (Microsoft, Redmond, Wash. 98052-7329) and GraphPad Prism 5 linear regression software (GraphPad Software, La Jolla, Calif. 92037 USA) to determine concentration-response curves for calculating relative GI50s. […] The % growth inhibition of the test drug on cells were calculated as: [1−(Test Value)/(Control Value)]×100; these values were used to plot concentration-response curves, and then analyzed with linear regression software.

Huh7 [2] = test: Drug sensitivity, MTS cell viability assay (GI50); conditions: Huh7, 96 hours, MTS
Experimental: as §1

MDA-MB-468 = test: Drug sensitivity, MTS cell viability assay (GI50); conditions: Homo sapiens, MDA-MB-468, 96 h
Experimental: as §1

MDA-MB-231 = test: Drug sensitivity, MTS cell viability assay (GI50)
Experimental: as §1

Huh7 [3] = test: Synergy of Hec1 inhibitor with cytotoxic drug (combination index, MTS); parameters: key to Combination Index: CI = (CA,X/ICx,A)+(CB,X/ICx,B) at x% drug effect
Experimental: (§2) Synergy: GI50s for selected drugs were determined and used to calculate a concentration ratio for use synergy assays with Hec1 inhibitors. Cells were treated with drugs 24 hours after being seeded in appropriate seeding numbers into 96 well plates containing low glucose DME with 10% FBS. […] Cell viability was determined by MTS assay using a CellTiter 96® Aqueous non-radioactive cell proliferation assay system (Promega, Madison, Wis. 53711 USA) according to the manufacturer's instructions. Optical density was determined using a Bio-Tek 340 spectrophotometer (Bio-Tek, Winooski, Vt. 05404) and were then processed using Excel (Microsoft, Redmond, Wash. 98052-7329) and GraphPad Prism 5 linear regression software (GraphPad Software, La Jolla, Calif. 92037 USA) to determine concentration-response curves for calculating relative GI50s. Synergy was determined by calculating a combination index value using the formula CI (combination index)=(CA,X/ICx,A)+(CB,X/ICx,B), where CA,X and CB,X are the concentrations of drug A and drug B used in combination to achieve x % drug effect. ICx,A and ICx,B are the concentrations for single agents to achieve the same effect.
(§3) Hec1 inhibitor-responsive cancer cells used for screening were treated with a mixture of Hec1 inhibitor and select anti-cancer drug at appropriate concentration ratios and evaluated for cell viability.

Hep3B = test: as above; parameters: key to Combination Index: CI = (CA,X/ICx,A)+(CB,X/ICx,B) at x% drug effect
Experimental: as §2, §3

K562R = test: Drug sensitivity, MTS assay, drug resistant cell line; conditions: Gleevec resistant myelogenous leukemia
Experimental: as §1

NCI/ADR-RES = test: as above; conditions: multi-drug resistant uterine sarcoma
Experimental: as §1

MB-468 = test: Synergy of Hec1 inhibitor with cytotoxic drug (combination index, MTS)
Experimental: as §2, §3

K562 [4] = test: as above
Experimental: as §2, §3

MB-231 = test: as above
Experimental: as §2, §3

[5] = tested on: Nek2 in resistant cell line (A549); test: Nek2 expression by immunoblotting; conditions: A549, 48 hours, immunoblot (FIG. 6B)
Experimental: Immunoblots: Cell lysates were by incubation of cells in radioimmunoprecipitation assay (RIPA) buffer (50 mM Tris-HCl, pH7.4, 150 mM NaCl, 1% NP40, 0.25% DOC, 0.1% SDS, 1 mM NaVO4, 1 mM EDTA, 1 ug/ml leupeptin, 1 μg/ml pepstatin) or 2.5× sample buffer (50 mM Tris-HCl, pH6.8, 1% SDS, 2.5% BME, 7.5% Glycerol, Bromophenol blue). Tissue samples were immersed in RIPA buffer, disrupted with a homogenizer, and centrifuged to clarify. Samples were then subjected to SDS-PAGE, blotted onto immunoblotting membranes, and incubated with primary antibodies in 3% BSA-TBST. Horseradish peroxidase—conjugated secondary antibodies were used for protein detection by enhanced chemiluminescence (Millipore, Billerica, Mass. 01821 USA). The following antibodies were used for Western blotting: anti-Rb monoclonal antibody 1F8 (Abcam, Cambridge, Mass. 02139-1517 USA); anti-p53 monoclonal antibody (Santa Cruz Biotechnology, Santa Cruz, Calif. 95060 USA); anti-β-actin monoclonal antibody AC-15 (Sigma Aldrich, St. Louis, Mo., USA).
To investigate this possibility, drug-responsive (HeLa, MDA-MB-468, HCT116) and resistant cells (A549) were synchronized by starvation and expression of Hec1 and Nek2 characterized at 1(G1), 27(G27), 32(G32), and 48(G48) hours. Differential expression patterns between Hec1 and Nek2 are apparent, indicating differences in regulation of Hec1/Nek2 pathways (FIG. 6A). […]

[6] = in combination with doxorubicin
[7] = in combination with Taxol (paclitaxel)
[8] = in combination with topotecan (187.20 nM), ratio used 3.74

- GI50 (K562 [1]; K562, 96 hours, listed as 110001): 40.6 nM and 43.8 nM
- GI50 (Huh7 [2]; Homo sapiens, Huh-7, 96 h): 84.3 nM
- GI50 (MDA-MB-468): 33.6 nM
- GI50 (MDA-MB-231; Homo sapiens, MDA-MB-231, 96 h): 43.3 nM
- GI50 (MDA-MB-231; MDA-MB-231, 96 hours, listed as 110001): 42.5 nM
- GI50 (K562R; Homo sapiens, K-562R): 29.6 nM
SMILES: COc1ccc(Oc2cc(C)c(-c3csc(NC(=O)c4ccncc4)n3)c(C)c2)cc1 [compound 101001, N-(4-(4-(4-methoxyphenoxy)-2,6-dimethylphenyl)thiazol-2-yl)isonicotinamide]
- Synergy (Huh7 [3]; in combination with KXO1): Additive
- Synergy (Huh7 [3]; [6]): Yes
- Synergy (Huh7 [3]; in combination with paclitaxel): Yes
- Synergy (Huh7 [3]; in combination with sorafenib): Antagonistic
- Synergy (Hep3B; in combination with sorafenib): Antagonistic
- GI50 (NCI/ADR-RES; Homo sapiens): 28.6 nM
- Synergy (MB-468; [6]): Yes
- Synergy (MB-468; in combination with topotecan): Yes
- Synergy (K562 [4]; [6]): Yes
- Synergy (K562 [4]; in combination with paclitaxel): Yes
- Synergy (MB-231; in combination with paclitaxel): Yes
- Synergy (MB-231; in combination with topotecan): Yes

- GI50 (K562 [1]; Homo sapiens, K562, 96 h): 28.2 nM
- GI50 (Huh7 [2]; Homo sapiens, Huh-7, 96 h): 48.9 nM
- GI50 (Huh7 [2]): 35 nM
- GI50 (MDA-MB-468): 21.1 nM
- GI50 (MDA-MB-231; Homo sapiens, MDA-MB-231, 96 h): 16.5 nM
- GI50 (K562R): 7.27 nM
- GI50 (K562R; Homo sapiens, K-562R): 10.4 nM
SMILES: COCCOc1cnc(Sc2cc(C)c(-c3csc(NC(=O)c4ccncc4)n3)c(C)c2)cn1 [compound 110095, N-(4-(4-(5-(2-methoxyethoxy)pyrazin-2-ylthio)-2,6-dimethylphenyl)thiazol-2-yl)isonicotinamide]
- Combination Index (Huh7 [3]; in combination with KX01 (KXO1)): 0.96
- Combination Index (Huh7 [3]; in combination with KX01 (KXO1), listed as 0095): 1.36
- Synergy (Huh7 [3]; in combination with KXO1): Additive
- Combination Index (Huh7 [3]; [7]): 0.65
- Combination Index (Huh7 [3]; in combination with Taxol (paclitaxel), listed as 0095): 1.05
- Combination Index (Huh7 [3]; [6]): 0.76
- Synergy (Huh7 [3]; in combination with paclitaxel): Yes
- Combination Index (Huh7 [3]; in combination with sorafenib): 1.05
- Synergy (Huh7 [3]; in combination with sorafenib): Additive
- Combination Index (Huh7 [3]; in combination with sorafenib, listed as 0095): 0.96
- Combination Index (Huh7 [3]; in combination with topotecan): 0.75
- Synergy (Huh7 [3]; in combination with topotecan (50.91 nM)): Yes
- Combination Index (Huh7 [3]; [8]): 0.76
- Synergy (Huh7 [3]; [8]): Yes
- Combination Index (Hep3B; in combination with KX01): 2.79
- Combination Index (Hep3B; in combination with Taxol): 2.40
- Combination Index (Hep3B; [6]): 2.27
- Combination Index (Hep3B; in combination with sorafenib): 1.20
- Combination Index (Hep3B; in combination with topotecan): 1.48
- Nek2 expression [5]: this effect is not seen
- GI50 (NCI/ADR-RES; Homo sapiens): 19.5 nM
- GI50 (NCI/ADR-RES): 10.4 nM
- Combination Index (MB-468; in combination with Taxol): 1.08
- Combination Index (MB-468; [6]): 0.87
- Synergy (MB-468; [6]): Yes
- Combination Index (MB-468; in combination with topotecan): 0.88
- Synergy (MB-468; in combination with topotecan): Yes
- Combination Index (K562 [4]; [7]): 1.64
- Combination Index (K562 [4]; [6]): 0.49
- Synergy (K562 [4]; [6]): Yes
- Combination Index (K562 [4]; in combination with topotecan): 1.38
- Combination Index (MB-231; [7]): 1.21
- Combination Index (MB-231; [6]): 1.26
- Combination Index (MB-231; in combination with topotecan): 0.71
- Synergy (MB-231; in combination with topotecan): Yes
